Where two headings read alike, the source gives them in different places.
Columns and labels:
C. albicans ALS = C. albicans ALS (Candida albicans, UniProt A0A1D8PJF9); experiment: ALS biochemical assay (CaALS)
A. fumigatus = experiment: Inhibition of A. fumigatus growth; format: cell-based
A. fumigatus ALS = A. fumigatus ALS (Aspergillus fumigatus, UniProt Q4WXQ3); experiment: ALS biochemical assay (AfALS)
Method: ALS biochemical assay (AfALS)
Aspergillus fumigatus acetohydroxyacid synthase (AfILV2) lacking the N-terminal mitochondrial-targeting sequence (amino acids 112-752) was overproduced and isolated from E. coli as an N-terminally His6-tagged protein. Assays (50 µL final volume) contained 200 nM His6-AfALS, 8 mM pyruvate, 1 mM thiamine pyrophosphate, and 10 µM flavin adenine dinucleotide, 10 mM MgCl2, 1 mM DTT, 1% DMSO (± inhibitor) in 200 mM KH2PO4 buffer at pH
7.5. Following a 30 min pre-incubation of the enzyme and inhibitor in the reaction mixture at room temperature, reactions were initiated with the addition of pyruvate. AfALS assays were carried out at 30 °C for 120 min. The reaction was quenched with the addition of 5 µL of 10% H2SO4 (v/v in deionized water). Reactions were incubated at 60 °C at incubating microplate shaker for 15 min to convert the product of the ALS reaction, acetolactate, to acetoin.
Subsequently, the concentration of acetoin was determined by the addition of 7.5 µL 6 M NaOH, 25 µL 0.5% creatine (w/v in deionized water), and 25 µL 4% 1-naphthol (w/v in 2.5 M NaOH).
This mixture was incubated at 60 °C in an incubating microplate shaker for 15 min. 40 µL of this reaction mixture was transferred to a half area UV-star 96-well plate (Grenier) and the absorbance at 525 nm was measured on a Spark multimode plate reader (Tecan). The percent inhibition was calculated by the comparison of the signal to DMSO (0% inhibition) and no enzyme (100% inhibition) controls. IC50 values were calculated from the dose response curves using Prism 9 (four parameter, variable slope). […]
(amino acids 58-687) was codon optimized for expression in E. coli and synthesized by […]

[1] = molecular target: T1, S. cerevisiae ALS wild type (Saccharomyces cerevisiae, UniProt P07342); experiment: ALS biochemical assay (ScALS), wild type
T1 construct: made in house; host or cells: E. coli BL21 (DE3), pET28a-ScILV2
T1 sequence (P07342 58-687): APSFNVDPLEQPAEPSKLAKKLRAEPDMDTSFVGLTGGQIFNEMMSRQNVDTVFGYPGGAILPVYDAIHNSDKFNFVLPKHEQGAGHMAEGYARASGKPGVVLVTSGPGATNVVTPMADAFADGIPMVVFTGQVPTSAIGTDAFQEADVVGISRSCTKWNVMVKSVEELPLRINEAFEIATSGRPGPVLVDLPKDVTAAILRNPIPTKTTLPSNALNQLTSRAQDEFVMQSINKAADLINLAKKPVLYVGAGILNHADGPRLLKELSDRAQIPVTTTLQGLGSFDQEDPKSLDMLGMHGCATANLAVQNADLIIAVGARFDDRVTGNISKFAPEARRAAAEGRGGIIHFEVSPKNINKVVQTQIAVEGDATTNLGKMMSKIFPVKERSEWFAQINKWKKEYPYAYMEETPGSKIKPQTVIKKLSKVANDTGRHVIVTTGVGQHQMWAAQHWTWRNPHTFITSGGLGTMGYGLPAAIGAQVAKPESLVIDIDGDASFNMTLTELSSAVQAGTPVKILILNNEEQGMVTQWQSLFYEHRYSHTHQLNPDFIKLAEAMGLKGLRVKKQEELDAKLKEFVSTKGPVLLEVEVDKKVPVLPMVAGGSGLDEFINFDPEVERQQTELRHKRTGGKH
Method: (§1) ALS biochemical assay (ScALS)
(§2) Saccharomyces cerevisiae acetohydroxyacid synthase (ScALS) lacking the N-terminal […]
(§3) Escherichia coli as an N-terminally His6-tagged protein. Assays (50 µL final volume) contained […]
(§4) adenine dinucleotide, 10 mM MgCl2, 1 mM DTT, 1% DMSO (± inhibitor) in 500 mM K2HPO4 buffer at pH 7.5. Following a 30 min pre-incubation of the enzyme and inhibitor in the reaction mixture at room temperature, reactions were initiated with the addition of pyruvate. ScALS assays were carried out at 30 °C for 60 min. The reaction was quenched with the addition of 5 µL of 10% H2SO4 (v/v in deionized water). Reactions were incubated at 60 °C at 800 rpm in an […]
(§5) to acetoin. Subsequently, the concentration of acetoin was determined by the addition of 7.5 µL 6 M NaOH, 25 µL 0.5% creatine (w/v in deionized water), and 25 µL 4% 1-naphthol (w/v in 2.5 M NaOH). This mixture was incubated at 60 °C at 800 rpm in an incubating microplate shaker for […]
(§6) 40 µL of this reaction mixture was transferred to a half area UV-star 96-well plate (Grenier) and the absorbance at 525 nm was measured on a Spark multimode plate reader (Tecan). The percent inhibition was calculated by the comparison of the signal to DMSO (0% […]
(§7) IC50 values were calculated from the dose response curves using Prism 9 (four parameter, variable slope). […]
(§8) Expression and purification of ScALS
(§9) S. cerevisiae ILV2 (the gene or ScALS) lacking the N-terminal mitochondrial-localization tag

S. cerevisiae ALS P192S = molecular target: T2, S. cerevisiae ALS P192S (Saccharomyces cerevisiae, UniProt P07342, P192S); experiment: biochemical; format: biochemical
T2 construct: His6 (followed by a TEV protease site, pET28a) (N); made in house; host or cells: E. coli (inferred from the ScALS method)
T2 sequence (P07342 58-687 P192S): as the sequence (P07342 58-687) above, with P135S counted along it
Method: as §1, §2, §3, §4, §5, §6, §7, §8, §9

[2] = Aspergillus fumigatus; read-out: A. fumigatus growth inhibition EC50 (Figure 4A)
[3] = Aspergillus fumigatus; read-out: A. fumigatus growth inhibition IC50

Sequence of C. albicans ALS (A0A1D8PJF9 entry or part of it): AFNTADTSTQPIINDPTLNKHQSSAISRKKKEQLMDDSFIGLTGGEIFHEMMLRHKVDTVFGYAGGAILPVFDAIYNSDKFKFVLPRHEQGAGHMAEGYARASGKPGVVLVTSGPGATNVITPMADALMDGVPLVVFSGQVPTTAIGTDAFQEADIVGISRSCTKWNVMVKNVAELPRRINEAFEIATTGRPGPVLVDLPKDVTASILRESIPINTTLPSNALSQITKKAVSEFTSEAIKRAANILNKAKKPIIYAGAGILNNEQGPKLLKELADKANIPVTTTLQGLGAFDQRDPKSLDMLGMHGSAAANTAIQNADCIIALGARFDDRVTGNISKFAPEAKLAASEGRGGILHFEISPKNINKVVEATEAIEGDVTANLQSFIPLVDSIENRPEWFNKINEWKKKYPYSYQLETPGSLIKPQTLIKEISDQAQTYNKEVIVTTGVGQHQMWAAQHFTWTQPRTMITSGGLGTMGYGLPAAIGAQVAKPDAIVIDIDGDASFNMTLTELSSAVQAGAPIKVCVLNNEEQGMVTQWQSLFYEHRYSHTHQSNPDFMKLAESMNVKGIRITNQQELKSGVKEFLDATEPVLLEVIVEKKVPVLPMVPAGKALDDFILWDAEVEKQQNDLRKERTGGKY
Sequence of A. fumigatus ALS (Q4WXQ3 entry or part of it): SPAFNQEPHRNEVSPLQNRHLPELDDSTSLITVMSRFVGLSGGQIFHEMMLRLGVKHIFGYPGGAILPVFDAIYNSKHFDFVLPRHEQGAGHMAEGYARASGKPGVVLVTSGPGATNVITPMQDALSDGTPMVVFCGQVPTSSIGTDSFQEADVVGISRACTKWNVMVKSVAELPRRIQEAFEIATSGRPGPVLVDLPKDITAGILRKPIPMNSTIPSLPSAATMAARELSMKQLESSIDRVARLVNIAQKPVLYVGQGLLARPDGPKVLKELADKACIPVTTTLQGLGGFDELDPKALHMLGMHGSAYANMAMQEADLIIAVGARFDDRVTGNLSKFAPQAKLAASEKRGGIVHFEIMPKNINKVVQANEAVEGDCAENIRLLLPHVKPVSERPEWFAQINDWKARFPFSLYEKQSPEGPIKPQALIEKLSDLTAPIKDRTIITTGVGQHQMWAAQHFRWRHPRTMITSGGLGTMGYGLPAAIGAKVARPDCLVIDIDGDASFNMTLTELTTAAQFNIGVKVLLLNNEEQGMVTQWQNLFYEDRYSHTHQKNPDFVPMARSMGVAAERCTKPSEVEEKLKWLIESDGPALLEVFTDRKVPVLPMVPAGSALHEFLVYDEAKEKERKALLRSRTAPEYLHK

Compound	IC50 (C. albicans ALS)	EC50 (A. fumigatus; [2])	IC50 (A. fumigatus; [3])	IC50 (A. fumigatus ALS)	other results
COC(=O)c1ccccc1CS(=O)(=O)NC(=O)Nc1nc(OC)cc(OC)n1 [compound 2, bensulfuron methyl]	30 ± 4 nM	57000 ± 20000 nM	200000 nM	100 ± 20 nM	–
COc1cc(OC)nc(Oc2cccc(Oc3nc(OC)cc(OC)n3)c2C(=O)O)n1 [compound 4, bispyribac, reference compound]	–	–	–	–	IC50 ([1]; recombinant ScALS, read-out: S. cerevisiae ALS IC50 Wild type): 600 ± 100 nM
COc1cnc(OC)n2nc(NS(=O)(=O)c3c(OCC(F)F)cccc3C(F)(F)F)nc12 [compound 3, penoxsulam]	3.4 ± 0.6 nM	23000 ± 7000 nM	25000 nM	0.5 ± 0.2 nM	IC50 [1]: 0.4 ± 0.2 nM; IC50 (S. cerevisiae ALS P192S): 150 ± 30 nM
C[C@@H](c1ncncc1F)[C@](O)(Cn1cncn1)c1ccc(F)cc1F [Voriconazole, voriconazole]	–	500 ± 200 nM	500 nM	–	–
CCOC(=O)c1ccccc1S(=O)(=O)NC(=O)Nc1nc(Cl)cc(OC)n1 [compound 5, chlormuron ethyl]	–	–	–	11 ± 3 nM	IC50 (C. albicans ALS; recombinant CaALS, read-out: ALS IC50 C. albicans): 27 ± 5 nM; EC50 (A. fumigatus; Aspergillus fumigatus, read-out: A. fumigatus growth inhibition EC50 (Figure 4A)): 80000 ± 30000 nM; IC50 (A. fumigatus; Aspergillus fumigatus, read-out: A. fumigatus growth inhibition IC50): 90000 nM

Source: PMC12947280, “An Antifungal with a Novel Mechanism of Action Discovered via Resistance Gene-Guided Genome Mining” (ACS Central Science, 2026)
